# Experiments:
# [1] = test system: adhesion of intestinal epithelial cells (HT-29) and monocytic cells (U937) induced by TNF-α; test: Inhibition of TNF-α-induced adhesion of monocytes and intestinal epithelial cells; assay type: cell-based, human; conditions: Homo sapiens
# Protocol: HT-29 human colon cancer-derived epithelial cells and U937 human-derived monocytes were cultured in RPMI 1640 medium containing 10% FBS and 1% penicillin/streptomycin (PS) in a 37° C., 5% CO2 incubator. When the cells grew more than 80% of the bottom area of the culture flask, they were passaged at a ratio of 1:3 and used in this experiment. HT-29 cells were cultured in a 24-well plate at the density of 2×10^5 cells/cm^2, and the test drug was pretreated in a medium containing 1% FBS and 1% PS for 1 hour. Thereafter, 10 μg/mL of BCECF-AM was treated thereto and reacted at 37° C. for 30 minutes. U937 cells loaded with BCECF and TNF-α (10 ng/mL) were reacted with HT-29 cells previously treated with the test drug at 37° C. for 3 hours. Upon completion of the reaction, the medium was removed, and the culture flask was washed twice with PBS to remove non-adherent U937 cells. In the next step, the cells were lysed by treating with 0.1% Triton X-100 (0.1 M Tris) and reacted at room temperature for 30 minutes. Then, fluorescence was measured and quantified using a fluostar optima microplate reader (BMG Labtechnologies, Germany) (Carvalho et al., 1996; Thapa et al., 2008).
# [2] = test system: DSS-induced acute enteritis mouse model; test: Oral efficacy in DSS-induced acute enteritis mouse model; assay type: in vivo, C57BL/6 mice; conditions: for Body weight recovery rate (%) / Intestinal weight recovery rate (%): acute enteritis (DSS), mouse
# Protocol: C57BL/6 mice aged 7-8 weeks were purchased from OrientBio (Korea), stabilized with general solid feed for 7 days, and then used in this experiment. Feed and water were freely supplied during the experiment period, and the temperature of the breeding room was maintained at 25±1° C. and the relative humidity at 50±10%. Lighting management was controlled in a 12-hour light-dark cycle by an automatic lighting controller.
# Enteritis was induced in mice by allowing them to freely ingest drinking water containing 2% DSS salt (M.W. 36,000˜50,000, MP Biomedicals, LLC, OH, USA). For the chronic enteritis model, DSS was administered using a schedule of DSS administration for the first 7 days, administration of normal drinking water for 14 days, repeated administration of DSS for 7 days from the 21st day, and administration of normal drinking water for 7 days. The drug was administered once a day, 6 days a week from the first day of DSS treatment (FIG. 2A). […] In order to measure the dose-dependent therapeutic effect of the drug in the acute enteritis model, DSS was administered for 5 days to induce enteritis, and then the drug was administered for 14 days to measure the degree of recovery and treatment of enteritis (FIG. 3A). The drug was administered orally once daily for […] at a fixed time.
# Changes in body weight of each mouse were observed during the DSS and drug administration using a digital mass meter.
# The colon of the mouse was extracted, and the length and weight from the anus to the cecum were measured.
# The degree of neutrophil infiltration in the tissue was measured by the amount of MPO, a neutrophil marker enzyme. The colon tissue with a size of 1 cm was washed with cold PBS and weighed, to which a lysis buffer (pH7.4, 200 mM NaCl, 5 mM EDTA, 10 mM tris, 10% glycerin, 1 mM PMSF, 1 μg/mL leupeptin and 28 μg/mL aprotinin) was added (500 μL of per 10 mg of tissue weight), and then homogenized using Bead Blaster® D2400 homogenizer (Benchmark Scientific, NJ, USA). […] (HK210, Hycult Biotechnology, Netherlands). The supernatant was added to a 96 well plate (100 μL/well) coated with an anti-mouse MPO antibody, and incubated for 1 hour at room temperature, followed by washing 3 times with a washing buffer. A reconstituted tracer was added to the plate (100 μL/well), which was reacted at room temperature for 1 hour, washed 3 times, and then 100 μL of streptavidin-peroxidase conjugate was added to each well of the plate. The plate was reacted at room temperature for 1 hour, washed, and 100 μl of TMB substrate solution was added to each well of the plate, followed by reaction for 30 minutes. The reaction was terminated by adding 100 μL of a stop solution to each well of the plate, and absorbance was measured at 450 nm. MPO activity means the amount of 1 μM […] at 25° C. for 1 minute. This was calculated as the amount of MPO contained in 1 mL of the colon tissue homogenate.
# Tissue staining was performed in the same manner as in the case of hematoxylin/eosin staining of the rat colon tissue, and scoring indexes of mucosal damage and recovery were applied in the same way.
smiles,measurement,setting,value
"Cc1ccc2[nH]c(C(=O)Nc3nc(C)c(O)c(C)c3C)cc2c1 [Compound X-09, N-(5-hydroxy-3,4,6-trimethylpyridin-2-yl)-5-methyl-1H-indole-2-carboxamide]",inhibition at 1 µM,"[1]; test drug 1 μM, TNF-α 10 ng/mL, HT-29/U937, read-out: Inhibitory activity (%)",82.8%
same,IC50,[1]; inhibition of adhesion by TNF-α,300 nM
same,"Morphological observation of colon, therapeutic effect versus tofacitinib","[2]; DSS acute mouse, 10 mg/kg, FIG. 3C",significantly superior to that of the control group treated with 30 mg/kg of tofacitinib
same,Morphological observation of colon,"[2]; DSS acute mouse, X-09 dose range, FIG. 3C",dose-dependent therapeutic efficacy
same,level of MPO in colon tissue,"[2]; DSS acute mouse, X-09 dose range, FIG. 3E",decreased by compound X-09 dose-dependently
same,Mucosal damage recovery of mouse colon (hematoxylin-eosin score),"[2]; DSS mouse, X-09 dose range, FIG. 4",dose-dependent mucosal damage recovery effect
same,Body weight recovery rate (%),[2]; 0.3 mg/kg,56.5%
same,Intestinal weight recovery rate (%),[2]; 0.3 mg/kg,48.4%
same,Body weight recovery rate (%),[2]; 1 mg/kg,72.0%
same,Intestinal weight recovery rate (%),[2]; 1 mg/kg,76.7%
same,Body weight recovery rate (%),[2]; 3 mg/kg,80.7%
same,Intestinal weight recovery rate (%),[2]; 3 mg/kg,89.0%
same,Body weight recovery rate (%),[2]; 10 mg/kg,88.1%
same,Intestinal weight recovery rate (%),[2]; 10 mg/kg,96.4%
